Reference: patent publication US4383993A, “Nasal dosage forms containing natural female sex hormones” (priority 1981, dated 1983)
Entries after “also recorded” stand apart in the source; their conditions may differ.

Experiments:
[1] = bioavailability of 17 β-estradiol in rats via intravenous, nasal and intraduodenal/oral routes (TUE, E2, E1 in blood); type: in vivo, Sprague-Dawley male rats
Description: (§1) Sprague-Dawley male rats, each weighing about 270 grams, were used in the progesterone study. For nasal administration, the rats were anesthetized using sodium pentobarbital (50 mg/kg) and the drug was administered to the nasal cavity by means of a micropipet at dosage levels of 50 μg, 100 μg and 150 μg/rat of [4-^14 C]-progesterone (~8.5 μCi/rat) in 0.1 ml of isotonic saline containing 1-2% Tween 80 as a solubilizing agent, according to the procedure described by Hirai et al, the 98th Annual Meeting of Pharmaceutical Society of Japan, Okayama, April 1978, except that the end of the tube leading from the esophagus to the nasal cavity was closed and the drug was administered to the nostrils which were then closed with an adhesive agent. For oral (intraduodenal) administration, the rats were anesthetized and the abdomen of each rat was opened through a midline incision and a 50 μg/rat dose of the drug ([4-^14 C]-progesterone in 0.1 ml isotonic saline with 1-2% Tween 80) was injected directly through the duodenum. For intravenous administration, the rats were anesthetized and the drug was injected through the femoral vein at dosage levels of 50 μg, 100 μg and 150 μg/rat of [4-^14 C]-progesterone in 0.1 ml of isotonic saline containing 1-2% Tween 80. Blood was sampled periodically from the […] after IV and nasal administration, and from the tail vein after ID administration. Blood levels of progesterone were determined by thin layer chromotography.
Sprague-Dawley male rats, each weighing approximately 270 grams, were given dosages of 5 μg, 10 μg and 20 μg/rat of [6,7-^3 H] […] Blood samples were taken periodically as described in the progesterone study and assayed for estradiol (E2), estrone (E1) and total unconjugated estrogens (TUE).

[2] = by mouth; rapid metabolism in intestinal epithelium and liver; cited from earlier work
[3] = bioavailability of progesterone in rats after intravenous, nasal and intraduodenal/oral administration; type: in vivo, Sprague-Dawley male rats
Description: as §1

SMILES	absorption by the nasal mucosa ([1]; nasal)	nasal vs oral bioavailability of E2 ([1]; rat, in vivo)	nasal vs oral bioavailability of TUE ([1]; rat, in vivo)	bioavailability ([1]; rat, in vivo, E2 bioavailability relative to corresponding IV doses) [%]	bioavailability ([1]; rat, in vivo, po, E2 AUC ratio vs. IV) [%]	bioavailability ([1]; rat, in vivo, po, E2 bioavailability relative to corresponding IV doses) [%]	oral effectiveness [2]	nasal bioavailability vs oral bioavailability ([3]; 50 μg dosage level) [times]	area under the curve as a function of dose ([3]; IV and nasal routes, 50, 100, 150 μg, FIG. 2)	area under the curve, intravenous vs nasal (two tailed t-test) ([3]; at each dose)	absorption from the nasal mucosa ([3]; nasal)	nasal bioavailability vs intravenous bioavailability ([3]; nasal vs intravenous)	nasal bioavailability vs oral bioavailability (in words) ([3]; nasal vs oral)	Tmax ([3]; rat, in vivo) [min]	bioavailability ([3]; rat, in vivo, iv, AUC ratio Nasal/IV) [%]	bioavailability ([3]; rat, in vivo, oral bioavailability relative to equivalent IV dose) [%]
C[C@]12CC[C@@H]3c4ccc(O)cc4CC[C@H]3[C@@H]1CC[C@@H]2O [17 β-estradiol, estra-1,3,5(10)-triene-3,17 β-diol]	rapidly absorbed by the nasal mucosa; also recorded: rapidly absorbed from the nasal mucosa into systemic blood without extensive intestinal or first pass metabolism	13.23-21.74 times	2.26-2.83 times	50.5 to 83.9	3.8	3.1 to 5										
CC(=O)[C@H]1CC[C@H]2[C@@H]3CCC4=CC(=O)CC[C@]4(C)[C@H]3CC[C@]12C [progesterone, pregn-4-ene-3,20-dione]							not effective by mouth	85.75	directly proportional to the dose administered	not significantly different, even at the 0.001 level	very rapidly absorbed from the nasal mucosa; also recorded: rapidly absorbed from the nasal mucosa into the systemic circulation without first pass metabolism; also recorded: rapidly absorbed from the nasal mucosa into systemic blood without extensive intestinal or first pass metabolism	equivalent	vastly superior	< 7	103	1.2
